From patent US10888569B1, “Methods and compositions for treating cancer” (THE UNIVERSITY OF CHICAGO, priority 2017, dated 2021) come the findings set out here.

For assay [1], the target named is T1, BACH1 (Homo sapiens, UniProt O14867).
T1 sequence (O14867 1-736): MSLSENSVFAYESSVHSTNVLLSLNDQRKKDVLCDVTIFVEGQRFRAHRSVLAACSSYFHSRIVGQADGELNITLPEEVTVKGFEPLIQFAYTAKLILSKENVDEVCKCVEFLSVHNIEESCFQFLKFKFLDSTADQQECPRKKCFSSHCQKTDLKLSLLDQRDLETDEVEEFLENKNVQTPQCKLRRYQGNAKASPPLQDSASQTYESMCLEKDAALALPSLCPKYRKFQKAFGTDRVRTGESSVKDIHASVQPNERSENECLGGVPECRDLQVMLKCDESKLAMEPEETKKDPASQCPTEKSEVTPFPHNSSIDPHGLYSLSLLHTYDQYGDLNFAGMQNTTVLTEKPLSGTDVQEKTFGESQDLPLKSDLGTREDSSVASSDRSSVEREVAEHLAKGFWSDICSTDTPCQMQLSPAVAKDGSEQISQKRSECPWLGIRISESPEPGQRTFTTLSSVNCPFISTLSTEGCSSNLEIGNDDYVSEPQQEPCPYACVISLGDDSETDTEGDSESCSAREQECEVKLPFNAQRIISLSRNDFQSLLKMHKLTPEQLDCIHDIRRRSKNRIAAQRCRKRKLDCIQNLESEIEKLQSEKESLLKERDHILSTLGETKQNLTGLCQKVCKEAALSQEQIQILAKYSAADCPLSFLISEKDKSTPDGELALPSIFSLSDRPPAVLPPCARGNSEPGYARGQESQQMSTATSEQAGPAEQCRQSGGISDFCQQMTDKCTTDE
Briefly: Immunoblotting of BACH1 in cell lysates after hemin. Details: Protein blots of BACH1 levels in BM1 and MB436 cells treated with Hemin for 4 or 24 hours; endogenous in cells; host or cells: BM1 (MDA-MB-231 derivative), MDA-MB-436, BT549. In kind it is cell-based. Here is the method: (§1) Whole cell lysates were prepared using RIPA buffer (Sigma) with protease inhibitor cocktails (1:100 ThermoFisher) and phosphatase inhibitors (SimpleStop1, Gold Biotechnology) at 4° C. and quantified using Bradford assays for western blotting using antibodies against BACH1 (sc-271211; Santa Cruz), and alpha-TUBULIN (sc-28199; Santa Cruz). Blots were imaged and processed using a Licor Odyssey Fc, dual-mode imaging system (Licor).

Assay [2] relates to MB436 xenograft tumors. The settings on record: hemin 50 mg/kg/day i.p. 10 consecutive days prior to metformin 200 mg/kg.
Description: Two million human breast cancer cells (MDA-MB-436-shCont, MDA-MB-436-shBACH1, BM1-shBACH1, or BM1-shCont) in 100 μl PBS were injected into the mammary fat pads of 5 to 6 weeks old athymic nude female mice (Charles River Laboratories). When tumors were about 20-30 or 50 mm^3 in volume, hemin (50 mg/kg/day) or vehicle (20 mM NaOH in phosphate buffered saline) was injected intraperitoneally for 10 days prior to metformin treatment for 8 weeks. Metformin (200 mg/kg for MDA-MB-436 cells or 300 mg/kg for BM1-cells) was provided in drinking water ad libidum. Tumor growth was monitored weekly by caliper measurement in two dimensions to generate ellipsoid volumes using an equation of vol.=0.4×(L×W^2).
Assay [3] has as its target T2, BACH1 (Mus musculus, UniProt P97302, C438A/C464A/C495A/C649A).
T2 construct: Protein blots of BACH1 levels in BM1 and MB436 cells treated with Hemin for 4 or 24 hours; endogenous in cells; host or cells: BM1 (MDA-MB-231 derivative), MDA-MB-436, BT549
T2 sequence (P97302 1-739 C438A/C464A/C495A/C649A): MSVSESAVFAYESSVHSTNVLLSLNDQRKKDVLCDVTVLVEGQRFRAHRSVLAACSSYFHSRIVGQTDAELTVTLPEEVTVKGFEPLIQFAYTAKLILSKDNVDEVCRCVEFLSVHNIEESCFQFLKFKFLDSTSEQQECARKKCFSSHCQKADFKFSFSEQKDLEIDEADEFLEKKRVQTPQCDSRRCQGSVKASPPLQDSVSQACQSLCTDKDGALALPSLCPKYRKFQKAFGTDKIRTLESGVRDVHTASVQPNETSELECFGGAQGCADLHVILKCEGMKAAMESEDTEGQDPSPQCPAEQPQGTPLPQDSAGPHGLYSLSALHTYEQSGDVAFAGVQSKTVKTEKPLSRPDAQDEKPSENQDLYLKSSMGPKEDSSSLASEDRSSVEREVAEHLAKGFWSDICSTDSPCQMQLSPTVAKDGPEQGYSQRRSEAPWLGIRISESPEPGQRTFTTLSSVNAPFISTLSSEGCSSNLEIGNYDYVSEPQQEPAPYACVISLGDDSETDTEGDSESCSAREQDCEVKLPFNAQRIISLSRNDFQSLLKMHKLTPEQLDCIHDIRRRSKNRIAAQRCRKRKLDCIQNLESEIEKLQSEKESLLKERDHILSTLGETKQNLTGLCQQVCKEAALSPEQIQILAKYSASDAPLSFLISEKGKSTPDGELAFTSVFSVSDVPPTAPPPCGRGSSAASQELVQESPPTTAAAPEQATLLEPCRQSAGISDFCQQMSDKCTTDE
Briefly: Immunoblotting of BACH1 in cell lysates after hemin. In kind it is cell-based, human. The settings on record: hemin 20 μM. Here is the method:
as §1

For assay [4], the target named is T1, BACH1. Briefly: Immunoblotting of PDX tumor lysates: BACH1. The settings on record: following hemin treatment. Details: BACH1 protein blots using tumor lysates from representative mice of different TNBC models; from tissue; host or cells: TNBC patient-derived xenograft tumour in mammary fat pad of SCID-Beige mice. It counts as in vivo, mouse. As for the experimental part: as §1
(§2) For a patient-derived xenografts (PDX) model, frozen PDX tumors in 0.5 ml of sterile HBSS were prepared in a volume of 10-20 mm^3. In brief, tumor fragments were implanted into the mammary fat pads of 5 weeks old SCID-Beige mice following standard procedures. […] Tumor volume was measured by caliper weekly. Tumor weight was measured at the end of drug treatment. Tumor size was shown as mean+/_s.e.m. with significance (p-value) by paired Student's t-test. All the animals were also monitored regularly for body weights.

The subject of assay [5] is pPDH (Ser293). Kind of assay: Immunoblotting of PDX tumor lysates: pPDH (Ser293). The settings on record: following hemin treatment. It counts as in vivo, mouse.
Assay [6] deals with BACH1-enriched TNBC PDX tumor. Briefly: Patient-derived xenograft (PDX) model treated with hemin and metformin. In kind it is in vivo, mouse. The settings on record: hemin 50 mg/kg/day i.p. and/or metformin 300 mg/kg/day; SCID-BEIGE mice. Here is the method: as §2

For the molecule `C=CC1=C(C)c2cc3[n-]c(cc4[n-]c(cc5nc(cc1n2)C(C)=C5C=C)c(C)c4CCC(=O)O)c(CCC(=O)O)c3C.[Cl-].[Fe+3]` [hemin, Chloro[3,7,12,17-tetramethyl-8,13-divinylporphyrin-2,18-dipropanoato(2-)]iron(III)], the BACH1 levels entry in assay [1] (20 μM hemin, cultured TNBC cells) is given as “effective at reducing BACH1 levels”; in assay [1] (hemin 10-80 μM, TNBC cells), “effective at reducing BACH1 levels”. For the same molecule, the “breast tumor growth / volume” value in assay [2] is recorded as “neither hemin nor metformin alone significantly altered tumor growth”. In addition, the “degradation of heme-resistant BACH1 mutant (Mut-Bach1)” value in assay [3] is listed as “did not degrade Mut-Bach1”. Besides, in assay [4], the “BACH1 protein expression in PDX tumors” value is on record as “depleted”. Besides, the “pPDH (Ser293) protein expression in PDX tumors” value in assay [5] is on record as “depleted”. The “PDX tumor volume, weight, size compared to controls” value in assay [6] was “considerable reduction in tumor volumes”.
